# In PubChem BioAssay AID330 (DTP/NCI, 2004):
# Values joined by “and” are separate entries in the source; they are usually repeats but may differ in a detail not shown here. Equal values may be shown once. Inconclusive results and toxic doses are left out.
# System: P388 leukemia ip, CD2F1 mice, survival T/C
# Assay: NCI In Vivo Anticancer Drug Screen. Data for tumor model P388 Leukemia (intraperitoneal) in CD2F1 (CDF1) mice
# Conditions: endpoint: median survival time, higher = longer survival
# Summary of the method: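 Mice carrying the transplanted tumor received test compound or vehicle. Survival was recorded in each group, and the value is the treated-group measurement divided by that of the vehicle-treated control group.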
# [1] = dose: 100.0 mg/kg/injection, schedule: Q04DX003 (ip), vehicle: saline with Tween-80
# [2] = dose: 200.0 mg/kg/injection, schedule: Q04DX003 (ip), vehicle: saline with Tween-80
# [3] = dose: 400.0 mg/kg/injection, schedule: Q04DX003 (ip), vehicle: saline with Tween-80
# [4] = dose: 50.0 mg/kg/injection, schedule: Q01DX005 (ip), vehicle: saline with Tween-80
# [5] = dose: 100.0 mg/kg/injection, schedule: Q01DX005 (ip), vehicle: saline with Tween-80
# [6] = dose: 200.0 mg/kg/injection, schedule: Q01DX005 (ip), vehicle: saline with Tween-80
# [7] = dose: 6.25 mg/kg/injection, schedule: Q01DX009 (ip), vehicle: saline
# [8] = dose: 12.5 mg/kg/injection, schedule: Q01DX009 (ip), vehicle: saline
# [9] = dose: 25.0 mg/kg/injection, schedule: Q01DX009 (ip), vehicle: saline
# [10] = dose: 50.0 mg/kg/injection, schedule: Q01DX005 (ip), vehicle: Klucel (hydroxypropylcellulose) (HPC)
# [11] = dose: 100.0 mg/kg/injection, schedule: Q01DX005 (ip), vehicle: Klucel (hydroxypropylcellulose) (HPC)
# [12] = dose: 200.0 mg/kg/injection, schedule: Q01DX005 (ip), vehicle: Klucel (hydroxypropylcellulose) (HPC)
compound,measurement,setting,value
CC1C(=O)OC2C(O)C34C5OC(=O)C3(OC3OC(=O)C(O)C34C(C(C)(C)C)C5O)C12O (centres undefined),T/C,"dose: 5.0 mg/kg/injection, schedule: Q01DX005 (ip), vehicle: Klucel (hydroxypropylcellulose) (HPC)",93 % of control
same,T/C,"dose: 10.0 mg/kg/injection, schedule: Q01DX005 (ip), vehicle: Klucel (hydroxypropylcellulose) (HPC)",95 % of control
same,T/C,"dose: 20.0 mg/kg/injection, schedule: Q01DX005 (ip), vehicle: Klucel (hydroxypropylcellulose) (HPC)",89 % of control
same,T/C,"dose: 40.0 mg/kg/injection, schedule: Q01DX005 (ip), vehicle: Klucel (hydroxypropylcellulose) (HPC)",93 % of control
same,T/C,"dose: 80.0 mg/kg/injection, schedule: Q01DX005 (ip), vehicle: Klucel (hydroxypropylcellulose) (HPC)",89 % of control
C[C@]12CCCC[C@@H]1CC[C@@H]1[C@@H]2[C@@H](O)C[C@]2(C)[C@@H](O)CC[C@@H]12,T/C,[1],91 % of control
same,T/C,[2],100 % of control
O=[N+]([O-])c1ccc(S(=O)(=O)O)cc1 (tested in a mixture with another compound),T/C,[1],98 % of control
same,T/C,[2],101 % of control
same,T/C,[3],86 % of control
CCOC(=O)C1=C(C)NC(C)=C(C(=O)OCC)C1(C)C,T/C,[4],104 % of control
same,T/C,[5],100 % of control
same,T/C,[6],100 % of control
CC(/C=C/c1ccccc1)=N\NC(=S)Nc1ccc(Cl)cc1,T/C,"dose: 100.0 mg/kg/injection, schedule: Q04DX002 (ip), vehicle: Klucel (hydroxypropylcellulose) (HPC)",108 % of control
same,T/C,"dose: 200.0 mg/kg/injection, schedule: Q04DX002 (ip), vehicle: Klucel (hydroxypropylcellulose) (HPC)",107 % of control
same,T/C,"dose: 400.0 mg/kg/injection, schedule: Q04DX002 (ip), vehicle: Klucel (hydroxypropylcellulose) (HPC)",108 % of control
COc1cc(NC(=O)CCl)ccc(=O)c1,T/C,"dose: 12.5 mg/kg/injection, schedule: Q01DX009 (ip), vehicle: saline with Tween-80",95 % of control
same,T/C,"dose: 25.0 mg/kg/injection, schedule: Q01DX009 (ip), vehicle: saline with Tween-80",113 % of control
CCCCOc1cc([N+](=O)[O-])ccc1CO,T/C,[1],100 % of control
same,T/C,[2],100 % of control
same,T/C,[3],95 % of control
O=C(CSCC(=O)c1ccc([N+](=O)[O-])cc1)c1ccc([N+](=O)[O-])cc1,T/C,[4],94 % of control
same,T/C,[5],96 % of control
same,T/C,[6],87 % of control
CNc1nc(=S)nc(-c2ccccc2)s1,T/C,[4],100 % of control
same,T/C,[5],106 % of control
same,T/C,[6],92 % of control
C[C@]12CCC(=O)C=C1CC[C@H]1[C@@H]3CC[C@](O)(C(=O)CF)[C@@]3(C)C[C@H](O)[C@@]12F,T/C,"dose: 3.12 mg/kg/injection, schedule: Q01DX009 (ip), vehicle: saline",105 % of control
same,T/C,[7],102 % of control
same,T/C,[8],118 % of control
same,T/C,[9],90 % of control
CCC1=C[C@H]2CN(CCc3c([nH]c4ccccc34)[C@@](C(=O)OC)(c3cc4c(cc3OC)N(C)[C@H]3[C@@](O)(C(=O)NC)[C@H](OC(C)=O)[C@]5(CC)C=CCN6CC[C@]43[C@@H]65)C2)C1,T/C,"dose: 0.02 mg/kg/injection, schedule: Q01DX009 (ip), vehicle: water",102 % of control
same,T/C,"dose: 0.03 mg/kg/injection, schedule: Q01DX009 (ip), vehicle: water",100 % of control
same,T/C,"dose: 0.12 mg/kg/injection, schedule: Q04DX003 (ip), vehicle: water",151 % of control
same,T/C,"dose: 0.13 mg/kg/injection, schedule: Q01DX009 (ip), vehicle: water",114 % of control and 203 % of control
same,T/C,"dose: 0.25 mg/kg/injection, schedule: Q01DX001 (ip), vehicle: water",110 % of control
same,T/C,"dose: 0.25 mg/kg/injection, schedule: Q01DX009 (ip), vehicle: water",220 % of control and 192 % of control and 214 % of control
same,T/C,"dose: 0.25 mg/kg/injection, schedule: Q04DX003 (ip), vehicle: water",187 % of control
same,T/C,"dose: 0.5 mg/kg/injection, schedule: Q01DX001 (ip), vehicle: water",119 % of control
same,T/C,"dose: 0.5 mg/kg/injection, schedule: Q04DX003 (ip), vehicle: water",214 % of control
same,T/C,"dose: 1.0 mg/kg/injection, schedule: Q01DX009 (ip), vehicle: water",87 % of control
same,T/C,"dose: 1.0 mg/kg/injection, schedule: Q04DX003 (ip), vehicle: water",232 % of control
same,T/C,"dose: 2.0 mg/kg/injection, schedule: Q01DX001 (ip), vehicle: water",150 % of control
same,T/C,"dose: 4.0 mg/kg/injection, schedule: Q01DX001 (ip), vehicle: water",154 % of control
same,T/C,"dose: 8.0 mg/kg/injection, schedule: Q01DX001 (ip), vehicle: water",180 % of control
O=[N+]([O-])/C=C/c1cc(Cl)c(/C=C/[N+](=O)[O-])cc1Cl,T/C,[10],108 % of control and 121 % of control
same,T/C,[11],120 % of control and 122 % of control
same,T/C,[12],106 % of control and 123 % of control
same,T/C,"dose: 400.0 mg/kg/injection, schedule: Q01DX005 (ip), vehicle: Klucel (hydroxypropylcellulose) (HPC)",97 % of control
CCCCC(NC(=O)CNC(=O)OCc1ccccc1)C(=O)O (centres undefined),T/C,[10],90 % of control
same,T/C,[11],104 % of control
same,T/C,[12],95 % of control
CCCCCC(O)/C=C/[C@H]1C(O)CC2O/C(=C\CCCC(=O)O)C[C@@H]21 (some centres undefined),T/C,"dose: 50.0 mg/kg/injection, schedule: Q01DX005 (ip), vehicle: saline",102 % of control
same,T/C,"dose: 100.0 mg/kg/injection, schedule: Q01DX005 (ip), vehicle: saline",100 % of control
same,T/C,"dose: 200.0 mg/kg/injection, schedule: Q01DX005 (ip), vehicle: saline",95 % of control
O=C(NCc1ccccc1)C1C(=O)N(Cc2ccccc2)C(=O)/C1=N/O (centres undefined),T/C,[4],100 % of control
same,T/C,[5],100 % of control
same,T/C,[6],100 % of control
CN(Nc1ccnc(=O)[nH]1)c1ccccc1,T/C,"dose: 60.0 mg/kg/injection, schedule: Q01DX005 (ip), vehicle: saline with Tween-80",105 % of control
same,T/C,"dose: 120.0 mg/kg/injection, schedule: Q01DX005 (ip), vehicle: saline with Tween-80",102 % of control
same,T/C,"dose: 240.0 mg/kg/injection, schedule: Q01DX005 (ip), vehicle: saline with Tween-80",93 % of control
COc1cccc2nncn12,T/C,"dose: 50.0 mg/kg/injection, schedule: Q01DX001 (ip), vehicle: saline",100 % of control
same,T/C,"dose: 100.0 mg/kg/injection, schedule: Q01DX001 (ip), vehicle: saline",100 % of control
same,T/C,"dose: 200.0 mg/kg/injection, schedule: Q01DX001 (ip), vehicle: saline",100 % of control
COc1cc2c(c(OC)c1OC)-c1ccc(=O)c(OC)cc1[C@@H](N(C)C=O)CC2,T/C,"dose: 2.5 mg/kg/injection, schedule: Q01DX009 (ip), vehicle: Klucel (hydroxypropylcellulose) (HPC)",105 % of control
same,T/C,"dose: 5.0 mg/kg/injection, schedule: Q01DX009 (ip), vehicle: Klucel (hydroxypropylcellulose) (HPC)",112 % of control
same,T/C,"dose: 10.0 mg/kg/injection, schedule: Q01DX009 (ip), vehicle: Klucel (hydroxypropylcellulose) (HPC)",100 % of control
same,T/C,"dose: 20.0 mg/kg/injection, schedule: Q01DX009 (ip), vehicle: Klucel (hydroxypropylcellulose) (HPC)",114 % of control
same,T/C,"dose: 40.0 mg/kg/injection, schedule: Q01DX009 (ip), vehicle: Klucel (hydroxypropylcellulose) (HPC)",114 % of control
CNC(=O)c1cc([N+](=O)[O-])cnc1NC,T/C,"dose: 50.0 mg/kg/injection, schedule: Q01DX009 (ip), vehicle: Klucel (hydroxypropylcellulose) (HPC)",95 % of control
same,T/C,"dose: 100.0 mg/kg/injection, schedule: Q01DX009 (ip), vehicle: Klucel (hydroxypropylcellulose) (HPC)",98 % of control
same,T/C,"dose: 200.0 mg/kg/injection, schedule: Q01DX009 (ip), vehicle: Klucel (hydroxypropylcellulose) (HPC)",92 % of control
CCC1(O)C(=O)OCc2c1cc1n(c2=O)Cc2c-1nc1ccccc1c2OC (centres undefined),T/C,[7],103 % of control
same,T/C,[8],100 % of control
same,T/C,[9],108 % of control
CCOC(=O)CNC(=O)C(CS)NC(=O)C(CSC(c1ccccc1)c1ccccc1)NC(=O)OCc1ccccc1 (centres undefined),T/C,[10],97 % of control
same,T/C,[11],99 % of control
same,T/C,[12],103 % of control
[CH3][Ge]1([CH3])[CH2]C(c2ccccc2)=C(c2ccccc2)[CH2]1,T/C,"dose: 60.0 mg/kg/injection, schedule: Q01DX005 (ip), vehicle: Klucel (hydroxypropylcellulose) (HPC)",99 % of control
same,T/C,"dose: 120.0 mg/kg/injection, schedule: Q01DX005 (ip), vehicle: Klucel (hydroxypropylcellulose) (HPC)",94 % of control
same,T/C,"dose: 240.0 mg/kg/injection, schedule: Q01DX005 (ip), vehicle: Klucel (hydroxypropylcellulose) (HPC)",90 % of control
COc1ccc(-c2cc(-c3ccccc3)[nH]c2-c2ccccc2)cc1,T/C,"dose: 100.0 mg/kg/injection, schedule: Q04DX002 (ip), vehicle: saline",98 % of control
same,T/C,"dose: 200.0 mg/kg/injection, schedule: Q04DX002 (ip), vehicle: saline",105 % of control
same,T/C,"dose: 400.0 mg/kg/injection, schedule: Q04DX002 (ip), vehicle: saline",100 % of control
